# Experimental data as given in patent US11680060B2, “Bicycloheptane pyrrolidine orexin receptor agonists” (Merck Sharp & Dohme LLC, priority 2020, dated 2023).
# pIC50: −log10 of the molar value.
# Target: human OX2R (Homo sapiens (Human), UniProt O43614)
# Experiment: IPOne (IP-1) assay in CHO cells expressing human OX2R
# Type: cell-based
# Details: for Emax: CHO, read-out: Emax (%); for Emax / Emax (%): percentage of mean max effect of a reference compound at 1 uM (100% activity by comparison to Orexin A), human OX2R; for pIC50: CHO cells expressing human OX2R, IP-One detection, 2 hours incubation, EC50 = inflection point of four parameter logistic fit, read-out: hOX2R_IP_IC50
# Description: The utility of the compounds in accordance with the present invention as orexin receptor OX1R and/or OX2R agonists may be readily determined without undue experimentation by methodology well known in the art. Both the OX1R and/or OX2R G-coupled protein receptors (GPCRs) couple through the Gαq signaling pathway, which ultimately promotes calcium mobilization via inositol triphosphate (IP3) production. The half-life of IP-3 is relatively short, being rapidly metabolized to inositol monophosphate (IP-1), which can be readily detected using a commercially available assay kit (IP-One; Cisbio; cat #621PAPEC) coupled with a cell line expressing the target receptor(s) of interest. The utility of the compounds in accordance with the present invention as orexin receptor OX1R and/or OX2R agonists may be determined utilizing this assay.
# In a typical experiment, the OX1 and OX2 receptor agonist activity is determined in accordance with the following general experimental method. Chinese hamster ovary (CHO) cells expressing human OX1R and/or the human OX2R were grown in Iscove's modified DMEM containing glutaMAX™, 1% G418, 100 U/mL penicillin, 100 μg/mL streptomycin and 10% heat-inactivated qualified fetal bovine serum (FBS). The OX2R cells were seeded at 10,000 cells/well/50 μL and the OX1R cells were seeded at 20,000 cells/well/50 μL into 384-well white tissue culture plates (Greiner; cat #781080). All cell/media reagents were from GIBCO-Invitrogen Corp. The seeded cell plate(s) were incubated at 37° C. with 5% CO2 and 85% humidity for 20-24 hours. On the day of the assay, assay-ready compound plates were prepared using an acoustic liquid handler (ECHO; Labcyte), which dispensed sufficient volume of test compound stock (10 mM in DMSO) or 100% DMSO to prepare 10 point, ½-log dilutions in a final volume of 202.5 nL/well in all test wells of a 384-well diamond plate (Labcyte). Following completion of assay-ready plates, importantly, the next three steps were performed with minimal delay: 1) 20 μl of 1× stimulation buffer was added to the compound plate using a Multidrop Combi (small cassette, Thermo Fisher Scientific cat #24073290); 2) culture medium was removed from the cell plate using the Bluewasher plate washer (gentle spin; BlueCatBio); 3) 14 μl of compound/stimulation buffer mixture was added to the cell plate using a Bravo liquid handler (Agilent) prior to incubating cell plates at 37° C. with 5% CO2 and 85% humidity for 1 or 2 hours (OX1R and OX2R, respectively). During this incubation, IP-one detection reagents were prepared (38:1:1 lysis buffer:D2:AB-cryptate reagents). Six μL of mixed detection reagents were added to the cell plate using a Multidrop Combi (small cassette, Thermo Fisher Scientific cat #24073290) and incubated 60 minutes at room temperature in the dark. Fluorescence signal was detected using an Envision plate reader (Perkin Elmer) [LANCE/DELFIA Dual Enh (Em: APC 665; Ex: Cy5 620)].
# For each compound, data were fit to a four parameter logistic fit (ActivityBase software) and the EC50 was reported as the inflection point of the resulting curve. Percent effect for each test compound was determined as the percentage of sample raw value/mean max effect, where the mean max effect was derived from the mean raw value of 32 control wells per assay plate (using Orexin A (cat #003-30) at 1 μM for human OX1R and a reference compound at 1 uM with 100% activity previously established by comparison to Orexin A for human OX2R). The intrinsic orexin receptor agonist activity of a compound which may be used in the present invention may be determined by these assays.
# Sequence of human OX2R (O43614 whole entry): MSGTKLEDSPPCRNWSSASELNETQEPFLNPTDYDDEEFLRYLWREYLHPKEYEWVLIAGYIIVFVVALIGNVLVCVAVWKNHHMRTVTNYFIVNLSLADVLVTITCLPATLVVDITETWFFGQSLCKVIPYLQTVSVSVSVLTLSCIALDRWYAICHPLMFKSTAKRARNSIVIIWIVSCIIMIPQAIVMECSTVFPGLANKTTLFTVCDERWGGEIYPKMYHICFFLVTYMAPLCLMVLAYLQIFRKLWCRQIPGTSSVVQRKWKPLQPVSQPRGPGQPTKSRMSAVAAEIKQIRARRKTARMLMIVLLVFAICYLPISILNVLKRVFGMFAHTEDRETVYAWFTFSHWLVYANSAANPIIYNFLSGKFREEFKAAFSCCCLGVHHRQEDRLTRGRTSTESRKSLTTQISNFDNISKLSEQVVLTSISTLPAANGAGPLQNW
Structure (SMILES),Emax [%],pIC50,Emax (%)
"COC(=O)N1[C@H](C)C[C@H](NS(C)(=O)=O)[C@@H]1COC1CCC2(c3ncc(C)cn3)CC2C1 (stereo partly drawn) [Example 159, methyl (2R,3S,5R)-5-methyl-2-(((6-(5-methylpyrimidin-2-yl)bicyclo[4.1.0]heptan-3-yl)oxy)methyl)-3-(methylsulfonamido)pyrrolidine-1-carboxylate]",98.1,–,–
"CC(C)OC(=O)N1[C@H](C)C[C@H](NS(C)(=O)=O)[C@@H]1COC1CCC2(c3ncc(F)cn3)CC2C1 (mixture of isomers) [Example 26, isopropyl (2R,3S,5R)-2-(((6-(5-fluoropyrimidin-2-yl)bicyclo[4.1.0]heptan-3-yl)oxy)methyl)-5-methyl-3-(methylsulfonamido)pyrrolidine-1-carboxylate]",101,7.94,–
"COC(=O)N1[C@H](C)C[C@H](NS(=O)(=O)C(F)F)[C@@H]1CO[C@H]1CC[C@@]2(c3ncc(Cl)cn3)C[C@H]2C1 [Example 78, methyl (2R,3S,5R)-2-((((1S,3S,6R)-6-(5-chloropyrimidin-2-yl)bicyclo[4.1.0]heptan-3-yl)oxy)methyl)-3-((difluoromethyl)sulfonamido)-5-methylpyrrolidine-1-carboxylate]",101,–,–
"CCS(=O)(=O)N[C@H]1C[C@@H](C)N(C(=O)OC)[C@H]1CO[C@H]1CC[C@@]2(c3ncc(F)cn3)C[C@H]2C1 [Example 36, methyl (2R,3S,5R)-3-(ethylsulfonamido)-2-((((1S,3S,6R)-6-(5-fluoropyrimidin-2-yl)bicyclo[4.1.0]heptan-3-yl)oxy)methyl)-5-methylpyrrolidine-1-carboxylate]",102,–,–
"C[C@@H]1C[C@H](NS(C)(=O)=O)[C@H](CO[C@H]2CC[C@@]3(c4ncc(F)cn4)C[C@H]3C2)N1C(=O)OCC(F)C1CCC1 (stereo partly drawn) [Example 54, 2-cyclobutyl-2-fluoroethyl (2R,3S,5R)-2-((((1S,3S,6R)-6-(5-fluoropyrimidin-2-yl)bicyclo[4.1.0]heptan-3-yl)oxy)methyl)-5-methyl-3-(methylsulfonamido)pyrrolidine-1-carboxylate]",104,–,–
"CCS(=O)(=O)N[C@H]1C[C@@H](C(F)F)N(C(=O)OC(C)C)[C@H]1CO[C@H]1CC[C@@]2(c3ncc(F)cn3)C[C@H]2C1 (single isomer, unassigned) [Example 118]",100,9.00,–
"CC(C)OC(=O)N1[C@H](C)C[C@H](NS(=O)(=O)C(F)F)[C@@H]1COC1CCC2(c3ncc(F)cn3)CC2C1 (stereo partly drawn) [Example 109, isopropyl (2R,3S,5R)-3-((difluoromethyl)sulfonamido)-2-(((6-(5-fluoropyrimidin-2-yl)bicyclo[4.1.0]heptan-3-yl)oxy)methyl)-5-methylpyrrolidine-1-carboxylate]",105,–,–
"COC(=O)N1[C@H](C)C[C@H](NS(=O)(=O)CF)[C@@H]1CO[C@H]1CC[C@@]2(c3ncc(Br)cn3)C[C@H]2C1 (single isomer, unassigned) [Example 87]",102,8.70,–
"COC(=O)N1[C@H](C)C[C@H](NS(C)(=O)=O)[C@@H]1COC1CCC2(c3ccccc3)CC2C1 (single isomer, unassigned) [Example 2]",–,6.75,100.5
"CC(C)OC(=O)N1[C@H](C)C[C@H](NS(=O)(=O)C(F)F)[C@@H]1CO[C@@H]1CC[C@]2(c3ncc(F)cn3)C[C@@H]2C1 (single isomer, unassigned) [Example 91]",102,8.48,–
"COC(=O)N1[C@H](C)C[C@H](NS(C)(=O)=O)[C@@H]1CO[C@@H]1CC[C@]2(c3ncc(C)cn3)C[C@@H]2C1 (single isomer, unassigned) [Example 155]",54.3,6.14,–
"CC(C)OC(=O)N1[C@H](C)C[C@H](NS(C)(=O)=O)[C@@H]1CO[C@H]1CC[C@@]2(c3ncc(Cl)cn3)C[C@H]2C1 (single isomer, unassigned) [Example 151]",101,8.36,–
"CC(C)OC(=O)N1[C@H](C)C[C@H](NS(=O)(=O)N(C)C)[C@@H]1COC1CCC2(c3ncc(F)cn3)CC2C1 (stereo partly drawn) [Example 164, isopropyl (2R,3S,5R)-3-((N,N-dimethylsulfamoyl)amino)-2-(((6-(5-fluoropyrimidin-2-yl)bicyclo[4.1.0]heptan-3-yl)oxy)methyl)-5-methylpyrrolidine-1-carboxylate]",100,–,–
"CC(C)OC(=O)N1[C@H](C)C[C@H](NS(C)(=O)=O)[C@@H]1COC1CCC2(c3ncc(Cl)cn3)CC2C1 (stereo partly drawn) [Example 154, isopropyl (2R,3S,5R)-2-(((6-(5-chloropyrimidin-2-yl)bicyclo[4.1.0]heptan-3-yl)oxy)methyl)-5-methyl-3-(methylsulfonamido)pyrrolidine-1-carboxylate]",101,–,–
"C[C@@H]1C[C@H](NS(C)(=O)=O)[C@H](CO[C@H]2CC[C@@]3(c4ncc(F)cn4)C[C@H]3C2)N1C(=O)OCC1(C)CC1(F)F (stereo partly drawn) [Example 57, (2,2-difluoro-1-methylcyclopropyl)methyl (2R,3S,5R)-2-((((1S,3S,6R)-6-(5-fluoropyrimidin-2-yl)bicyclo[4.1.0]heptan-3-yl)oxy)methyl)-5-methyl-3-(methylsulfonamido)pyrrolidine-1-carboxylate]",102,–,–
"CC(C)OC(=O)N1[C@H](C)C[C@H](NS(=O)(=O)C(F)F)[C@@H]1COC1CCC2(c3ncc(F)cn3)CC2C1 (single isomer, unassigned) [Example 93]",–,6.34,40.6
"COC(=O)N1[C@H](C)C[C@H](NS(C)(=O)=O)[C@@H]1CO[C@@H]1CC[C@]2(c3ncccn3)C[C@@H]2C1 (single isomer, unassigned) [Example 20]",–,–,99.7
"CCC(OC(=O)N1[C@H](C)C[C@H](NS(C)(=O)=O)[C@@H]1CO[C@H]1CC[C@@]2(c3ncc(F)cn3)C[C@H]2C1)C(F)F (stereo partly drawn) [Example 50, 1,1-difluorobutan-2-yl (2R,3S,5R)-2-((((1S,3S,6R)-6-(5-fluoropyrimidin-2-yl)bicyclo[4.1.0]heptan-3-yl)oxy)methyl)-5-methyl-3-(methylsulfonamido)pyrrolidine-1-carboxylate]",104,–,–
"CC(C)OC(=O)N1[C@H](C)C[C@H](NS(=O)(=O)CF)[C@@H]1CO[C@H]1CC[C@@]2(c3ncc(F)cn3)C[C@H]2C1 (single isomer, unassigned) [Example 100]",100,9.00,–
"CC(C)OC(=O)N1[C@H](C)C[C@H](NS(=O)(=O)CF)[C@@H]1COC1CCC2(c3ncc(Br)cn3)CC2C1 (single isomer, unassigned) [Example 105]",91.7,6.63,–
"CC(C)OC(=O)N1[C@H](C)C[C@H](NS(=O)(=O)CF)[C@@H]1CO[C@H]1CC[C@@]2(c3ncc(Br)cn3)C[C@H]2C1 (single isomer, unassigned) [Example 103]",101,8.37,–
"CC(C)OC(=O)N1[C@H](C(F)F)C[C@H](NS(C)(=O)=O)[C@@H]1CO[C@H]1CC[C@@]2(c3ncc(F)cn3)C[C@H]2C1 [Example 119, isopropyl (2R,3S,5S)-5-(difluoromethyl)-2-((((1S,3S,6R)-6-(5-fluoropyrimidin-2-yl)bicyclo[4.1.0]heptan-3-yl)oxy)methyl)-3-(methylsulfonamido)pyrrolidine-1-carboxylate]",100,–,–
"CC(F)COC(=O)N1[C@H](C)C[C@H](NS(C)(=O)=O)[C@@H]1CO[C@H]1CC[C@@]2(c3ncc(F)cn3)C[C@H]2C1 (stereo partly drawn) [Example 58, 2-fluoropropyl (2R,3S,5R)-2-((((1S,3S,6R)-6-(5-fluoropyrimidin-2-yl)bicyclo[4.1.0]heptan-3-yl)oxy)methyl)-5-methyl-3-(methylsulfonamido)pyrrolidine-1-carboxylate]",103,–,–
